# Experimental data from PMC3974779, “Pterostilbene-Isothiocyanate Conjugate Suppresses Growth of Prostate Cancer Cells Irrespective of Androgen Receptor Status” (PLoS ONE, 2014).
# Key:
# Assay type in all cases: cell-based, human
# [1] = system: cleaved caspase-3 in LNCaP cells; experiment: Akt/ERK silencing or inhibition, cleaved caspase-3 immunoblot
# Experimental: The siRNAs against human Akt and ERK and control siRNA were purchased commercially from Santa Cruz Biotechnology (USA). The LNCaP and PC-3 PCa cells were transfected with siRNAs (at a final concentration of 100 nM) using polyfect transfection reagent (Qiagen, CA, USA) according to manufacturer’s instructions. After 24 h of transfection, the cells were washed properly and replaced with fresh medium. The cells were then treated with 20 μM conjugate for 24 h, and finally protein lysates were prepared on completion of treatment. The levels of p-Akt, p-ERK and cleaved caspase-3 expressions were detected by Western blot analysis.
# Figure 5 Differential role of PI3K/Akt and MAPK/ERK pathways in conjugate induced apoptosis of prostate cancer cells. Effects of siRNA mediated silencing of Akt and ERK on conjugate-induced apoptosis of (A) PC-3 and (B) LNCaP cells. LNCaP and PC-3 PCa cells were transfected with siRNAs (at a final concentration of 100 nM) using polyfect transfection reagent. After 24 h of transfection the cells were treated with 20 μM conjugate and allowed to grow for another 24 h. The cell lysates were prepared and the level of p-Akt, p-ERK and cleaved caspase-3 proteins were detected by immunoblot analysis. The histogram on the right panel of each figure represents densitometric analyses of the image data and expressed as percent of control where the results are mean ± SEM of three independent experiments. *and # represents statistically significant difference with respect to control and 20 μM conjugate treated groups respectively at p<0.05.
# Supplementary file pone.0093335.s001.tif: Figure S1 (A) Effects of the Akt Kinase inhibitor (A6730) and/or the ERK inhibitor (PD98059) on the conjugate-induced apoptosis of PC-3 and (B) LNCaP cells. The cells were pre-treated with A6730 (5 μM) and/or PD98059 (20 μM) for 1 h before the addition of 20 μM conjugate for additional 24 h (total inhibitor exposure time was 25 h). The collected cell lysates were then immunoblotted using respective antibodies. The histogram on the right panel of each figure represents densitometric analyses of the image data and expressed as percent of control where the results are mean ± SEM of three independent experiments. *and # represents statistically significant difference with respect to control and 20 μΜ conjugate treated groups respectively at p<0.05. (TIF) Click here for additional data file.
# [2] = system: LNCaP cells; experiment: Cell cycle distribution by flow cytometry
# Experimental: (§1) Cell cycle distribution and Annexin V/Propidium iodide (PI) positive cells were analyzed using flow cytometry. In brief, first the cells were seeded and treated with 0, 10, 20 and 40 μM conjugate in complete medium for 24 h. This was followed by trypsinizing and fixing in 70% ethanol, and finally washing with PBS. Subsequently, the cells were treated with RNase A (50 μg/ml), stained with PI (50 μg/ml) and incubated in the dark for 30 min at room temperature and analyzed by flow cytometry for cell cycle distribution. For apoptosis, the conjugate treated cells were stained with Alexa-Fluor 488-conjugated Annexin-V using the Vybrant-Apoptosis Assay Kit from Invitrogen (USA) as per the manufacturer’s protocol. The stained cells were then analyzed by fluorescence activated cell sorting (FACS Calibur, BD Biosciences, San Jose, CA, USA) and the data were standardized using Cell Quest 3.3 software.
# [3] = system: PC-3 cells; experiment: Cell cycle distribution by flow cytometry; conditions: PC-3, 40 μM, 24 h (control 22%)
# Experimental: as §1
# [4] = system: SRC-1 in LNCaP cells; experiment: Immunoblot of AR co-activators
# Experimental: (§2) The whole-cell lysates were prepared as described previously in immunoprecipitation (IP) buffer containing 50 mM Tris-HCl (pH 8.0), 150 mM NaCl, 5 mM EDTA, and 1% Triton X-100. Protein aliquots of 500 μg were then incubated overnight at 4°C using 2 μg of antibody directed against AR. The Protein A-Cl Agarose beads were then added and further incubated for 6 h at 4°C. The immunoprecipitates were washed four times with the IP buffer and the immunocomplexes were recovered by boiling in SDS sample buffer. Finally the western blot was carried out using anti-AR, anti-SRC-1 and anti-GRIP-1 antibodies (Santa Cruz, CA, USA). For western blot analysis, the cell lysates were prepared after harvesting them in lysis buffer. About 40 μg of total protein was electrophoresed by 12% SDS-PAGE, and the western blotting was carried out using standard protocol. In brief, the analyzed proteins were transferred to nylon membranes. The blots were then blocked with TBST buffer (20 mM Tris-Cl, pH 7.5, 150 mM sodium chloride, 0.05% Tween-20) containing 5% skim milk powder. They were then washed with TBST buffer and incubated overnight at 4°C with the same buffer containing appropriate amounts of primary antibodies: caspase-3, Bax, Bcl-2, Akt, p-Akt, ERK, p-ERK, AR, SRC-1, GRIP-1 (1∶500) and β-actin (1∶1000). The blots were then washed and incubated with anti-rabbit secondary antibody (1∶20,000) conjugated with horseradish peroxidase (HRP). Color development was performed in the dark by using an ECL kit (Amersham, GE Healthcare, Buckinghamshire, UK). The developed blots were subjected to densitometric analysis by ImageJ 1.43 software (NIH, USA) using β-actin as internal control.
# [5] = system: GRIP-1 in LNCaP cells; experiment: Immunoblot of AR co-activators
# Experimental: as §2
smiles,measurement,setting,value
"COc1cc(/C=C/c2ccc(O)c(/C=N/NC(N)=S)c2)cc(OC)c1 [conjugate, Pterostilbene-isothiocyanate conjugate]",increase in cleaved caspase-3 protein level,"[1]; Akt-silenced LNCaP cells, 20 μM conjugate",~4.5 folds
same,increase in cleaved caspase-3 level,"[1]; ERK-silenced LNCaP cells, 20 μM conjugate",6.5 folds
same,cleaved caspase-3 in ERK-silenced cells plus conjugate relative to conjugate alone,"[1]; LNCaP, 20 μM conjugate",about 1.4 times
same,level of cleaved caspase-3 vs conjugate alone,"[1]; LNCaP, A6730 (5 μM) combined with 20 μM conjugate",did not show any significant increase
same,level of cleaved caspase-3 vs conjugate alone,"[1]; LNCaP, co-treatment with PD98059 (20 μM) and 20 μM conjugate",significantly increased
same,accumulation of cells in G2/M phase,"[2]; increasing doses of conjugate, 24 h",16–35%
same,cells in G2/M phase,"[2]; treated cells, 24 h (control 11%)",35%
same,cells arrested in G2/M phase,[3],approximately 50%
same,decrease in expression of SRC-1 protein,[4]; 10 μM,1.4 folds
same,decrease in expression of SRC-1 protein,[4]; 20 μM,2.6 folds
same,reduction of GRIP-1 level,[5]; 10 μM,1.7 folds
same,reduction of GRIP-1 level,[5]; 20 μM,2.6 folds
